The results in this text go back to patent US6915969B2, “Method and installation for making flour from ozone-treated grains” (Green Technologies Sarl, priority 1999, dated 2005).

A short description of the assay: reduction of pesticide contaminants. Also noted: species or system wheat. The settings on record: after treatment by the method of the invention (ozone). The text has this: A reduction of about 80% in the content of Chlorpyriphosmethyl (a pesticide generally used in the case of wheat) was thus observed, thus leading certainly to a product which is perfectly acceptable from the point of view of the current food standards.

Consider `COP(=S)(OC)Oc1nc(Cl)c(Cl)cc1Cl` [Chlorpyriphosmethyl], for which the “reduction in the content of Chlorpyriphosmethyl” value was “about 80%”.
